This is an account of results in patent publication US20150141375A1 (priority 2009, published 2015).

Data set [1] can be described thus: Safety and pharmacokinetics of CMX001 in healthy volunteers. In kind it is in vivo, human. The note with it: blood, Human, analyte = label. As to the method: An initial study was conducted to evaluate the safety and pharmacokinetics of CMX001 in healthy volunteers. The study consisted of a single dose arm (SD) and a multiple dose arm (MD). In the single dose arm 7 cohorts of 6 subjects were treated (4 subjects received active drug and 2 placebo). Enrollment was staggered as 2 subjects (one active, one placebo) followed by 4 subjects (Groups A and B). The estimated single doses for the two highest doses treated for a […] subject were 40 mg (0.6 mg/kg cohort 6) and 70 mg (1 mg/kg cohort 7). In the multiple dose arm, cohort 6MD received 0.1 mg/kg on Day 0, 6 and 12; Cohort 7MD received 0.2 mg/kg on Day 0, 6 and 12. Levels of cidofovir, CMX001 and CMX064 (major metabolite) were measured in blood and urine of subjects during the course of the study. Gastrointestinal (GI) monitoring of the subjects included (a) monitoring for clinical signs of GI adverse events, (b) monitoring for clinical symptoms using a visual Analog Scale, (c) monitoring for appetite loss/anorexia, nausea, vomiting, diarrhea, constipation and intestinal gas/bloating, (d) laboratory tests for fecal occult blood; serum electrolytes, urine specific gravity, BUN/creatinine ratio; serum albumin, and lipids, and (e) diagnostic studies (the Wireless capsule endoscopy (PillCam®, Given Imaging)).

The test system of another data set is human PBMCs. Put plainly: Intracellular CDV-PP in human PBMCs. Format: in vitro ADME. The protocol:
CMX001 increases cellular exposure to the active antiviral agent, cidofovir-diphosphate (CDV-PP). […] CDV-PP in PBMCs incubated for 48 hours with CMX001 or cidofovir.

The next data set concerns HCMV. Description: HCMV viral DNA accumulation in HFF cells, real time PCR, 7 days. In kind it is cell-based. The conditions noted are these: GCV 10 μM. A general note: In qPCR the cycle at which signal appears reflects the starting amount.
Another data set concerns HCMV (AD169). Put plainly: HCMV real time array of viral transcripts. The note with it: CDV 50 μM, GCV 15 μM, CMX001 0.5 μM; ANOVA P<0.05. Format: cell-based.
For another data set, the system named is Adenovirus. The conditions noted are these: literature values; cited from earlier work.
The subject of the next data set is BK Virus. Put plainly: BK virus replication in RPTECs, viral DNA by qPCR after 5 days. In kind it is cell-based. The conditions noted are these: Betapolyomavirus hominis, RPTEC. As to the method: To test the ability of CMX001 to inhibit replication of BK virus, stocks of BK virus were prepared in HFF cells and dilutions of the virus stocks were used to infect primary human renal tubular epithelial cells (RPTECs). Drug dilutions were then added to the wells containing the infected cells and the plates were incubated for 5 days. Total DNA was prepared from the plates and viral DNA was quantified by qPCR.

A further data set has as its system Mad-4 JCV. Put plainly: JCV (Mad-4) initial infection of SVG cells (in situ DNA hybridization, qPCR). The note with it: for decrease in percentage of cells containing JCV DNA: day 7.
Data set [2] in a line: SVG cell viability / cell number (MTS, alamar blue, hematoxylin). In kind it is cell-based, human. The note with it: human, SVG cells; Ara-C 20 μg/ml; read-out: decrease of cell viability (MTS). The protocol:
(§1) Quantification of cell viability using the MTS [3-(4,5-dimethylthiazol-2-yl)-5-(3-carboxymethoxyphenyl)-2-(4-sulfophenyl)-2H-tetrazolium] assay is based on bioactivity of mitochondrial dehydrogenase in living cells, which converts colorless tetrazolium salt to a colored formazan. MTS assays were performed according to manufacturer's instructions (Promega, Madison Wis.). Briefly, culture medium was removed from cells and 50 μL of PBS was added into each well of a 96 well plate. Ten μL of MTS reagent were added to wells of cells, and to a well without cells to determine background. Mixtures were incubated at 37° C. for 2 hours and the absorbance was measured at 490 nm. Trypan blue staining was performed on identical cultures to correlate MTS values with cell viability. The final values indicated are the result from 3 replicates. The value for the non-treated control was set to 100% and all other values are represented as a percentage of the control. Alamar blue (AB) assay.
(§2) Quantification of cell viability using the alamar blue (AB) assay was performed according to the manufacturer's instructions (Invitrogen, Gaithersburg, Md.). Briefly, 10 μL of AB reagent was added to each well of a 96 well dish containing cells or without cells to determine background. Mixtures were incubated at 37° C. for 6 hours and the absorbance measured at 570 nm using 600 nm as a reference wavelength. The value for the non-treated control was set to 100% and all other values are represented as a percentage of the control.
(§3) Because cell density in cultures processed for in situ DNA hybridization could not be measured by MTS or AB assays, cell density was approximated in cell cultures processed by quantifying hematoxylin staining intensity. Coverslips containing cells were prepared for in situ DNA hybridization and co-stained with hematoxylin. Subsequently, each coverslip was scanned and the hematoxylin intensities quantified using ImageJ. To determine the total cell number per coverslip, images were acquired at 10 random positions at 100× magnification. Cells were counted throughout each image and the average cell number per slide was generated by averaging counts from the 10 images for each experimental group. Exactly 900 images at 100× magnification cover the surface of an 18 mm×18 mm coverslip.
(In general: Alamar Blue is a resazurin reagent that responds to reducing activity.)

The test system of the next data set is SVG cells. The description is as above. The note with it: Ara-C 5 μg/ml. In kind it is cell-based, human. As to the method:
as §1, §2, §3

A further data set relates to HSV-2. Put plainly: In vitro efficacy against HSV-2 strains in HFF (CPE, plaque reduction). In kind it is cell-based. An excerpt:
In vitro screening by CPE assay in human foreskin fibroblast (HFF) cells with confirmation using plaque reduction assays in HFF.

Another data set has as its system HSV-2, strain MS. Put plainly: Mortality of BALB/c mice infected intranasally with HSV-2, strain MS. Format: in vivo. As to the method: Animals: BALB/c, female mice, 3-4 weeks of age.
Treatments were administered to mice for 7 consecutive days beginning 72 hr post viral inoculation by oral gavage using a 0.2 ml volume. CMX001 was administered once daily and ACV was given twice daily at approximately 12 hr intervals.
Mortality rates analyzed by Fisher's exact test; Mean day of death (MDD) by Mann-Whitney U rank sum.

The next data set deals with HSV-1. Put plainly: microbe, parasite or virus in culture. Format: cell-based.
Setting [3] is: JC polyomavirus, read-out: reduction of JCV DNA containing cells, normalized to cell viability.

Read-outs that look alike come from different tables or passages of the source.

For the compound `Nc1ccn(C[C@@H](CO)OCP(=O)(O)OCCCOCCCC(=O)O)c(=O)n1` [CMX064], the AUC in data set [1] (0.05 mg/kg, CMX001 0.050 mg/kg) worked out at 39 ng·h/mL; in data set [1] (0.1 mg/kg, CMX001 0.100 mg/kg), 34 ng·h/mL; in data set [1] (0.2 mg/kg, CMX001 0.200 mg/kg), 39.7 ng·h/mL; in data set [1] (0.4 mg/kg, CMX001 0.400 mg/kg) it was 203 ng·h/mL; in data set [1] (0.6 mg/kg, CMX001 0.600 mg/kg), 187 ng·h/mL; in data set [1] (CMX001 0.025 mg/kg), 11.8 ng·h/mL. Further, the Cmax in [1] (0.05 mg/kg, CMX001 0.050 mg/kg) was 4.63 ng/mL; in data set [1] (0.1 mg/kg, CMX001 0.100 mg/kg), 2.85 ng/mL; in data set [1] (0.2 mg/kg, CMX001 0.200 mg/kg) it was 4.55 ng/mL; in [1] (0.4 mg/kg, CMX001 0.400 mg/kg) it was 23 ng/mL; in data set [1] (0.6 mg/kg, CMX001 0.600 mg/kg), 24.9 ng/mL; in data set [1] (CMX001 0.025 mg/kg), 1.69 ng/mL.

Turning to cidofovir diphosphate [CDV-PP], the figures for the “t1/2 for CDV-PP” value in the data set with human PBMCs (PBMCs incubated 48 hours with CMX001 or cidofovir (FIG. 40)), with human PBMCs (incubation with CMX001 for 1 hour (FIG. 42)) and in the data set with human PBMCs (incubation with CMX001 for 48 hours (FIG. 41)) were 6.5 days, 6.5 days and 3.9 days, respectively.

For the compound `Nc1nc(O)c2ncn(COC(CO)CO)c2n1` [ganciclovir, reference compound], the “fold reduction of accumulation of viral DNA” value in the data set with HCMV is recorded as “less than 10 fold”. Besides, in the data set with HCMV (AD169), the “levels of viral transcripts” value is “Significant reductions in levels of most viral transcripts”. For the same compound, in the data set with Adenovirus, the IC50 is 4.5 to 33 µM. Moreover, the EC50 with BK Virus (Virus Dilution 1:10) was 89 µM; in the data set on BK Virus (Virus Dilution 1:50), more than 100 µM; in the data set on BK Virus (Virus Dilution 1:100), 70.8 µM.

Regarding `Nc1ccn([C@@H]2O[C@H](CO)C(O)C2O)c(=O)n1` (stereo partly drawn) [Ara-C, Cytosine β-D-arabinofuranoside], the “decrease in percentage of cells containing JCV DNA” value in the data set on Mad-4 JCV (Ara-C 5 μg per mL) was 25%; in the data set with Mad-4 JCV (Ara-C 20 μg per mL), 83%. The inhibition at 5 µg/mL in the data set with Mad-4 JCV (setting [3]) stood at 27%. Besides, the inhibition at 20 µg/mL in the data set on Mad-4 JCV (setting [3]) stood at 78%. In addition, in data set [2], the cytotoxicity at 20 μg/ml is 21%. Moreover, in the data set on SVG cells, the “cytotoxicity (MTS)” value is on record as “did not cause cytotoxicity”.

In the case of `Nc1nc2c(ncn2COCCO)c(=O)[nH]1` [Acyclovir, acyclovir], the EC50 is more than 100 µM in the data set on HSV-2 (Human alphaherpesvirus 2, ACV resistant strain 11572); 79 ± 10 µM in the data set on HSV-2 (Human alphaherpesvirus 2, ACV resistant strain 11680); more than 100 µM in the data set with HSV-2 (Human alphaherpesvirus 2, ACV resistant strain 12247); more than 100 µM in the data set on HSV-2 (Human alphaherpesvirus 2, ACV resistant strain AG-3); 2.1 ± 0.99 µM with HSV-2 (Human alphaherpesvirus 2, G (wild type), Table 9); 3.1 ± 3.5 µM in the data set with HSV-2 (Human alphaherpesvirus 2, strain G). Further, the EC50 is 2.2 ± 0.8 µM with HSV-2 (Human alphaherpesvirus 2, strain MS); more than 100 µM in the data set on HSV-1 (Human alphaherpesvirus 1, ACV resistant strain B-2006); more than 100 µM in the data set on HSV-1 (Human alphaherpesvirus 1, ACV resistant strain DM2.1); 13.6 ± 2.7 µM in the data set on HSV-1 (Human alphaherpesvirus 1, ACV resistant strain PAAr5); 1.9 ± 0.47 µM in the data set on HSV-1 (Human alphaherpesvirus 1, F (wild type), Table 9); more than 100 µM with HSV-1 (Human alphaherpesvirus 1, SC16, ACV resistant strain SC16-S1). Besides, the EC50 in the data set on HSV-1 (Human alphaherpesvirus 1, read-out: EC50 range, panel of wild-type and ACV-resistant isolates of HSV-1 and HSV-2) was not below 2 µM; with HSV-1 (Human alphaherpesvirus 1, strain F), 0.35 ± 0.2 µM; with HSV-1 (Human alphaherpesvirus 1, strain HL-3), 3.8 ± 0.4 µM. Also, the MDD amounted to 9.0 ± 1.6 in the data set on HSV-2, strain MS (Acyclovir 3 mg/kg); 11.1 ± 2.4 with HSV-2, strain MS (Acyclovir 10 mg/kg); 10.7 ± 2.0 in the data set on HSV-2, strain MS (Acyclovir 30 mg/kg). For the same compound, the “Mortality Number” value with HSV-2, strain MS (Acyclovir 3 mg/kg) is on record as 15/15; in the data set on HSV-2, strain MS (Acyclovir 10 mg/kg), 11/15; in the data set with HSV-2, strain MS (Acyclovir 30 mg/kg), 6/15. For the same compound, the “Mortality Percent” value with HSV-2, strain MS (Acyclovir 3 mg/kg) was 100%; with HSV-2, strain MS (Acyclovir 10 mg/kg), 79%; with HSV-2, strain MS (Acyclovir 30 mg/kg), 40%. The IC50 in the data set with Adenovirus was more than 100 µM.

As a reminder, the AUC is the area under the concentration-time curve, a measure of exposure. What is called Cmax is the peak of the concentration-time curve. The term IC50 denotes the concentration that inhibits the measured activity by half. For orientation: EC50 means the midpoint of the concentration-response curve.
